Assay results as given in patent US9902702B2, “Spirocycloheptanes as inhibitors of rock” (BRISTOL-MYERS SQUIBB COMPANY, priority 2014, dated 2018).

Target: ROCK2 (Homo sapiens, UniProt O75116)
Assay: ROCK assay: phosphorylation of FITC peptide substrate, LABCHIP 3000 mobility shift
Assay type: biochemical
Conditions: 5 μM ATP, 1.5 μM peptide substrate; read-out: ROCK2 Activity (ROCK IC50 range)
Procedure, shortened: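 IC50 values come from curve-fitting percent kinase inhibition across a compound dilution series. The reaction is started with Rho kinase variant in HEPES pH 7.5 buffer with MgCl2, Brij-35 and DTT, with 5 μM ATP, 1.5 μM FITC-labelled peptide and under 2% DMSO. After EDTA quench, product and substrate are separated by microfluidic mobility shift.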

Chain of ROCK2 (O75116 whole entry, species assumed): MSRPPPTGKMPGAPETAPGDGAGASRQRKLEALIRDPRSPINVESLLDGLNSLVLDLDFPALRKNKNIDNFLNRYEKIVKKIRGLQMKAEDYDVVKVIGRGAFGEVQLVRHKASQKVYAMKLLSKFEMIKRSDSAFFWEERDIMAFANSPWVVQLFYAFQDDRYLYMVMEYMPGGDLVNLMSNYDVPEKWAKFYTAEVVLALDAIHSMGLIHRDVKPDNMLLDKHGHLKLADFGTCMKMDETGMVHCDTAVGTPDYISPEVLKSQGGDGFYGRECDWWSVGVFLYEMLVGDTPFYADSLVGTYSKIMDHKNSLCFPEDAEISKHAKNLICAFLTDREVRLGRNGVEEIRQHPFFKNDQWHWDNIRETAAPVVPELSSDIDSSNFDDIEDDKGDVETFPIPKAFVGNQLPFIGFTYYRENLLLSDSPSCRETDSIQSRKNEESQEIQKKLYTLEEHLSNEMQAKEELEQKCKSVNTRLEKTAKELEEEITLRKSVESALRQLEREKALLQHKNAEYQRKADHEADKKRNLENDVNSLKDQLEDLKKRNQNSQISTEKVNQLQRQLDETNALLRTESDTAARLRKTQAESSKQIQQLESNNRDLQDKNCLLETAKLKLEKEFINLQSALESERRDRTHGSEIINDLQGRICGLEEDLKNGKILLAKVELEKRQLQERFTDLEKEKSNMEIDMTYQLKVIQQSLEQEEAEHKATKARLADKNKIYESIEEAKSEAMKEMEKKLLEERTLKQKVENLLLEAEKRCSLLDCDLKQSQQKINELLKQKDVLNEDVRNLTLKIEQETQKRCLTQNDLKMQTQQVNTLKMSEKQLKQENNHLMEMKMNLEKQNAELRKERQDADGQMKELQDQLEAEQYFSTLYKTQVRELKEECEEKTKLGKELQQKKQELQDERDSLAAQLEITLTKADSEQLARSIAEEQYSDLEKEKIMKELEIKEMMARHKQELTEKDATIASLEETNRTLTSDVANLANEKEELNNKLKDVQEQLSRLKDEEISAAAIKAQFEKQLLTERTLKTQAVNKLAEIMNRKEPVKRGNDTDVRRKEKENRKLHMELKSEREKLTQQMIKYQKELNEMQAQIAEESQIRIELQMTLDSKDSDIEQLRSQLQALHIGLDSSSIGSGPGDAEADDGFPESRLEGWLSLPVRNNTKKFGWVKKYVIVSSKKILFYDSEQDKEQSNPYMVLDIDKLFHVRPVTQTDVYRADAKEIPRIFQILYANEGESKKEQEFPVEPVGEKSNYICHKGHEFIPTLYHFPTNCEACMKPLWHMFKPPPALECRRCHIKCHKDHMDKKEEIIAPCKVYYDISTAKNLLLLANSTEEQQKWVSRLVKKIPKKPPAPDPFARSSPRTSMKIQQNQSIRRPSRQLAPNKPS

SMILES	IC50 [nM]
Cc1cccc2c(C(=O)N[C@H]3CC4(C3)C[C@H](c3n[nH]c(=O)c5ccccc53)C4)cnn12 (stereo partly drawn) [Example 123, 7-methyl-N-((aR)-6-(4-oxo-3,4-dihydrophthalazin-1-yl)spiro[3.3]heptan-2-yl)pyrazolo[1,5-a]pyridine-3-carboxamide]	2.01 to 5
COc1c(C(=O)NC2CC3(C2)CC(c2n[nH]c(=O)c4ccccc24)C3)nc2ccccn12 (stereo not drawn) [Example 124, 3-methoxy-N-((αR)-6-(4-oxo-3,4-dihydrophthalazin-1-yl)spiro[3.3]heptan-2-yl)imidazo[1,2-α]pyridine-2-carboxamide]	15.1 to 100
O=C(NC1CC2(C1)CC(c1n[nH]c(=O)c3ccccc13)C2)c1cnn2c(C3CC3)c(OCc3ccccc3)ccc12 (stereo not drawn) [Example 125, 6-(benzyloxy)-7-cyclopropyl-N-((αR)-6-(4-oxo-3,4-dihydrophthalazin-1-yl)spiro[3.3]heptan-2-yl)pyrazolo[1,5-α]pyridin-3-carboxamide]	2.01 to 5
Cc1c(OCc2ccccc2)ccc2c(C(=O)NC3CC4(C3)CC(c3n[nH]c(=O)c5ccccc35)C4)cnn12 (stereo not drawn) [Example 126, 6-(benzyloxy)-7-methyl-N-((αR)-6-(4-oxo-3,4-dihydrophthalazin-1-yl)spiro[3.3]heptan-2-yl)pyrazolo[1,5-α]pyridine-3-carboxamide]	0.2 to 2
N#Cc1c(OCc2ccccc2)ccc2c(C(=O)NC3CC4(C3)CC(c3n[nH]c(=O)c5ccccc35)C4)cnn12 (stereo not drawn) [Example 127, 6-(benzyloxy)-7-cyano-N-((αR)-6-(4-oxo-3,4-dihydrophthalazin-1-yl)spiro[3.3]heptan-2-yl)pyrazolo[1,5-α]pyridine-3-carboxamide]	0.2 to 2
O=C(NC1CC2(C1)CC(c1n[nH]c(=O)c3ccccc13)C2)c1cnn2c(C3CC3)c(O)ccc12 (stereo not drawn) [Example 128, 7-cyclopropyl-6-hydroxy-N-((αR)-6-(4-oxo-3,4-dihydrophthalazin-1-yl)spiro[3.3]heptan-2-yl)pyrazolo[1,5-α]pyridine-3-carboxamide]	2.01 to 5
COc1ccccc1-n1cc(C(=O)NC2CC3(C2)CC(c2n[nH]c(=O)c4ccccc24)C3)nn1 (stereo not shown) [Example 129, 1-(2-methoxyphenyl)-N-((αR)-6-(4-oxo-3,4-dihydrophthalazin-1-yl)spiro[3.3]heptan-2-yl)-1H-1,2,3-triazole-4-carboxamide]	5.1 to 15
CN(C)Cc1c(OCc2ccccc2)ccc2c(C(=O)NC3CC4(C3)CC(c3n[nH]c(=O)c5ccccc35)C4)cnn12 (stereo not drawn) [Example 130, 6-(benzyloxy)-7-((dimethylamino)methyl)-N-((αR)-6-(4-oxo-3,4-dihydrophthalazin-1-yl)spiro[3.3]heptan-2-yl)pyrazolo[1,5-α]pyridine-3-carboxamide]	5.1 to 15
O=C(NC1CC2(C1)CC(c1n[nH]c(=O)c3ccccc13)C2)c1cnn2cc(OC(CF)CF)ccc12 (stereo not drawn) [Example 131, 6-((1,3-difluoropropan-2-yl)oxy)-N-((αR)-6-(4-oxo-3,4-dihydrophthalazin-1-yl)spiro[3.3]heptan-2-yl)pyrazolo[1,5-α]pyridine-3-carboxamide]	0.2 to 2
O=C(NC1CC2(C1)CC(c1n[nH]c(=O)c3ccccc13)C2)c1cnn2cc(OC3CCS(=O)(=O)CC3)ccc12 (stereo not drawn) [Example 132, 6-((1,1-dioxidotetrahydro-2H-thiopyran-4-yl)oxy)-N-((αR)-6-(4-oxo-3,4-dihydrophthalazin-1-yl)spiro[3.3]heptan-2-yl)pyrazolo[1,5-α]pyridine-3-carboxamide]	0.2 to 2
O=C(NC1CC2(C1)CC(c1n[nH]c(=O)c3ccccc13)C2)c1cnn2cc(OCCC(F)(F)F)ccc12 (stereo not drawn) [Example 133, N-((αR)-6-(4-oxo-3,4-dihydrophthalazin-1-yl)spiro[3.3]heptan-2-yl)-6-(3,3,3-trifluoropropoxy)pyrazolo[1,5-α]pyridine-3-carboxamide]	0.2 to 2
O=C(NC1CC2(C1)CC(c1n[nH]c(=O)c3ccccc13)C2)c1cnn2cc(OC3CCC(F)(F)CC3)ccc12 (stereo not drawn) [Example 134, 6-((4,4-difluorocyclohexyl)oxy)-N-((αR)-6-(4-oxo-3,4-dihydrophthalazin-1-yl)spiro[3.3]heptan-2-yl)pyrazolo[1,5-α]pyridine-3-carboxamide]	0.2 to 2
O=C(NC1CC2(C1)CC(c1n[nH]c(=O)c3ccccc13)C2)c1cnn2cc(OC3CCOCC3)ccc12 (stereo not drawn) [Example 135, N-((αR)-6-(4-oxo-3,4-dihydrophthalazin-1-yl)spiro[3.3]heptan-2-yl)-6-((tetrahydro-2H-pyran-4-yl)oxy)pyrazolo[1,5-α]pyridine-3-carboxamide]	0.2 to 2
COC(=O)N1CC(Oc2ccc3c(C(=O)NC4CC5(C4)CC(c4n[nH]c(=O)c6ccccc46)C5)cnn3c2)C1 (stereo not shown) [Example 136]	2.01 to 5
O=C(NC1CC2(C1)CC(c1n[nH]c(=O)c3ccccc13)C2)c1cnn2cc(O)ccc12 (stereo not drawn) [Example 137, 6-hydroxy-N-((αR)-6-(4-oxo-3,4-dihydrophthalazin-1-yl)spiro[3.3]heptan-2-yl)pyrazolo[1,5-α]pyridine-3-carboxamide]	2.01 to 5
O=C(NC1CC2(C1)CC(c1n[nH]c(=O)c3ccccc13)C2)c1cnn2cc(OC3CC(F)(F)C3)ccc12 (stereo not drawn) [Example 138, 6-(3,3-difluorocyclobutoxy)-N-((αR)-6-(4-oxo-3,4-dihydrophthalazin-1-yl)spiro[3.3]heptan-2-yl)pyrazolo[1,5-α]pyridine-3-carboxamide]	0.2 to 2
O=C(NC1CC2(C1)CC(c1n[nH]c(=O)c3ccccc13)C2)c1cnn2cc(OCCOCC(F)(F)F)ccc12 (stereo not drawn) [Example 139, N-((αR)-6-(4-oxo-3,4-dihydrophthalazin-1-yl)spiro[3.3]heptan-2-yl)-6-(2-(2,2,2-trifluoroethoxy)ethoxy)pyrazolo[1,5-α]pyridine-3-carboxamide]	0.2 to 2
O=C(NC1CC2(C1)CC(c1n[nH]c(=O)c3ccccc13)C2)c1cnn2cc(OCc3nnc(C4CC4)s3)ccc12 (stereo not drawn) [Example 140, 6-((5-cyclopropyl-1,3,4-thiadiazol-2-yl)methoxy)-N-((αR)-6-(4-oxo-3,4-dihydrophthalazin-1-yl)spiro[3.3]heptan-2-yl)pyrazolo[1,5-α]pyridine-3-carboxamide]	0.2 to 2
O=C(NC1CC2(C1)CC(c1n[nH]c(=O)c3ccccc13)C2)c1cnn2c(C(F)(F)F)c(OCc3ccccc3)ccc12 (stereo not drawn) [Example 141, 6-(benzyloxy)-N-((αR)-6-(4-oxo-3,4-dihydrophthalazin-1-yl)spiro[3.3]heptan-2-yl)-7-(trifluoromethyl)pyrazolo[1,5-α]pyridine-3-carboxamide]	5.1 to 15
CC(C)(O)Cn1nc(C(=O)N[C@H]2CC3(C2)C[C@H](c2n[nH]c(=O)c4ccccc42)C3)c2ccc(C3CC3)cc21 (stereo partly drawn) [Example 142, 6-cyclopropyl-1-(2-hydroxy-2-methylpropyl)-N-((aR)-6-(4-oxo-3,4-dihydrophthalazin-1-yl)spiro[3.3]heptan-2-yl)-1H-indazole-3-carboxamide]	2.01 to 5
CC(C)(O)Cn1nc(C(=O)N[C@H]2CC3(C2)C[C@H](c2n[nH]c(=O)c4ccccc42)C3)c2ccc(-c3ccccc3)cc21 (stereo partly drawn) [Example 143, 1-(2-hydroxy-2-methylpropyl)-N-((aR)-6-(4-oxo-3,4-dihydrophthalazin-1-yl)spiro[3.3]heptan-2-yl)-6-phenyl-1H-indazole-3-carboxamide]	2.01 to 5
CC(C)(O)Cn1nc(C(=O)NC2CC3(C2)CC(c2n[nH]c(=O)c4ccccc24)C3)c2ccc(-c3ccc(Cl)cc3)cc21 (stereo not shown) [Example 144, 6-(4-chlorophenyl)-1-(2-hydroxy-2-methylpropyl)-N-((αR)-6-(4-oxo-3,4-dihydrophthalazin-1-yl)spiro[3.3]heptan-2-yl)-1H-indazole-3-carboxamide]	5.1 to 15
Cn1ccc(-c2ccc3c(C(=O)NC4CC5(C4)CC(c4n[nH]c(=O)c6ccccc46)C5)nn(CC(C)(C)O)c3c2)n1 (stereo not shown) [Example 145, 1-(2-hydroxy-2-methylpropyl)-6-(1-methyl-1H-pyrazol-3-yl)-N-((αR)-6-(4-oxo-3,4-dihydrophthalazin-1-yl)spiro[3.3]heptan-2-yl)-1H-indazole-3-carboxamide]	2.01 to 5
Cn1nccc1-c1ccc2c(C(=O)NC3CC4(C3)CC(c3n[nH]c(=O)c5ccccc35)C4)nn(CC(C)(C)O)c2c1 (stereo not shown) [Example 146, 1-(2-hydroxy-2-methylpropyl)-6-(1-methyl-1H-pyrazol-5-yl)-N-((αR)-6-(4-oxo-3,4-dihydrophthalazin-1-yl)spiro[3.3]heptan-2-yl)-1H-indazole-3-carboxamide]	2.01 to 5
Cn1cc(-c2ccc3c(C(=O)NC4CC5(C4)CC(c4n[nH]c(=O)c6ccccc46)C5)nn(CC(C)(C)O)c3c2)cn1 (stereo not shown) [Example 147, 1-(2-hydroyx-2-methylpropyl)-6-(1-methyl-1H-pyrazol-4-yl)-N-((αR)-6-(4-oxo-3,4-dihydrophthalazin-1-yl)spiro[3.3]heptan-2-yl)-1H-indazole-3-carboxamide]	2.01 to 5
CC(C)(O)Cn1nc(C(=O)NC2CC3(C2)CC(c2n[nH]c(=O)c4ccccc24)C3)c2ccc(C=Cc3ccccc3)cc21 (stereo not shown) [Example 148, 1-(2-hydroxy-2-methylpropyl)-N-((αR)-6-(4-oxo-3,4-dihydrophthalazin-1-yl)spiro[3.3]heptan-2-yl)-6-((E)-styryl)-1H-indazole-3-carboxamide]	5.1 to 15
CC(C)(O)Cn1nc(C(=O)NC2CC3(C2)CC(c2n[nH]c(=O)c4ccccc24)C3)c2ccc(C=CC3CC3)cc21 (stereo not shown) [Example 149, 6-((E)-2-cyclopropylvinyl)-1-(2-hydroxy-2-methylpropyl)-N-((αR)-6-(4-oxo-3,4-dihydrophthalazin-1-yl)spiro[3.3]heptan-2-yl)-1H-indazole-3-carboxamide]	5.1 to 15
COc1cccc(-c2ccc3c(C(=O)NC4CC5(C4)CC(c4n[nH]c(=O)c6ccccc46)C5)nn(CC(C)(C)O)c3c2)n1 (stereo not shown) [Example 150, 1-(2-hydroxy-2-methylpropyl)-6-(6-methoxypyridin-2-yl)-N-((αR)-6-(4-oxo-3,4-dihydrophthalazin-1-yl)spiro[3.3]heptan-2-yl)-1H-indazole-3-carboxamide]	2.01 to 5
